Laboratory results from patent US8236792B2, “Substituted pyrrolidine amides as modulators of the histamine H3 receptor” (Janssen Pharmaceutica NV, priority 2008, dated 2012).
Where two headings read alike, the source gives them in different places.

Assays:
[1] = biological target: T1, cloned human H3 receptors (Homo sapiens, UniProt Q9Y5N1); test: H3 Receptor Binding (Human) Method 1; settings: receptor stably expressed in SK-N-MC cells, free base forms, average of results
T1 construct: expressed in transfected cells

[2] = biological target: T2, human H3 receptor (Homo sapiens, UniProt Q9Y5N1); test: H3 Receptor Binding (Human) Method 2, [125I]-iodoproxyfan competitive radioligand binding; design: expressed in transfected cells
[3] = biological target: T3, cloned rat H3 receptors (Rattus norvegicus, UniProt Q9QYN8); test: H3 Receptor Binding (Rat)
T3 construct: expressed in transfected cells
Procedure: Compounds were tested for binding to cloned rat H3 receptors, stably expressed in SK-N-MC cells.
Compounds were tested in their free base or hydrochloride salt forms.

[4] = biological target: T4, rat H3 receptor (Rattus norvegicus, UniProt Q9QYN8); test: Cyclic AMP Accumulation (rat H3 reporter subline); format: cell-based
T4 construct: expressed in transfected cells; host or cells: SK-N-MC sublines with a reporter construct
Procedure: (§1) Sublines of SK-N-MC cells were created that expressed a reporter construct and either the human or rat H3 receptor. […] Compounds were tested in their free base or trifluoroacetate salt forms.

[5] = biological target: T2, human H3 receptor; test: Cyclic AMP Accumulation (human H3 reporter subline); format: cell-based; design: expressed in transfected cells; host or cells: SK-N-MC sublines with a reporter construct; settings: SK-N-MC subline with reporter construct and human H3 receptor; free base or trifluoroacetate salt; average
Procedure: as §1

[6] = receptor stably expressed in SK-N-MC cells, free base or hydrochloride salt, average of results, read-out: Rat H3 Ki
[7] = SK-N-MC subline with reporter construct and rat H3 receptor, free base or trifluoroacetate salt, average, read-out: Rat pA2 (converted)
[8] = SK-N-MC subline with reporter construct and rat H3 receptor, free base or trifluoroacetate salt, average

T3 sequence (Q9QYN8 whole entry): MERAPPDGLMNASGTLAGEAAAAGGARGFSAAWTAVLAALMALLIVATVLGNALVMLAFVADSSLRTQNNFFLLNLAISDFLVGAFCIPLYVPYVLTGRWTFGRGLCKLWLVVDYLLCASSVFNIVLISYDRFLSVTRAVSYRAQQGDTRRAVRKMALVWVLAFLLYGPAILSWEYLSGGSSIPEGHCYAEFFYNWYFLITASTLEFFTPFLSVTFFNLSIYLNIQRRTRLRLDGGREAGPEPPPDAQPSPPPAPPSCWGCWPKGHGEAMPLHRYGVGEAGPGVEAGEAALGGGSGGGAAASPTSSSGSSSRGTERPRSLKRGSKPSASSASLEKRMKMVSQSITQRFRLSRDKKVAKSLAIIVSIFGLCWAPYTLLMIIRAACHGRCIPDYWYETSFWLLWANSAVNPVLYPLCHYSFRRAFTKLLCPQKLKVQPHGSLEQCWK
T4 sequence (Q9QYN8 whole entry): as above
T2 sequence (Q9Y5N1 whole entry): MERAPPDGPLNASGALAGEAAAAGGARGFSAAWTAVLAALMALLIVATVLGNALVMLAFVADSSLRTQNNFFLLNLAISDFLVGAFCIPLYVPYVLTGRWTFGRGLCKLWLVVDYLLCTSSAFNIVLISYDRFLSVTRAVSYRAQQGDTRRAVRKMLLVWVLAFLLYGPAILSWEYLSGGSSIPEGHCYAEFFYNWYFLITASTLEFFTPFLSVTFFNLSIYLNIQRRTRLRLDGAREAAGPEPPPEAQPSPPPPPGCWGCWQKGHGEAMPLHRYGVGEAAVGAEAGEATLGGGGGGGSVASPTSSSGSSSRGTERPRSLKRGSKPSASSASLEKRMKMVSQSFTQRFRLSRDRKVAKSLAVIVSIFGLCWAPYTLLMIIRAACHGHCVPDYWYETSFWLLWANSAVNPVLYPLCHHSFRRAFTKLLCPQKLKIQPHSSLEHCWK
T1 sequence (Q9Y5N1 whole entry): as above

| Structure (SMILES) | Ki [1] | Ki ([2]; read-out: Human H3 Ki) | Ki [3, 6] | other results |
| --- | --- | --- | --- | --- |
| CC(C)(C)OC(=O)N1C[C@@H](Oc2ccc(C#N)cc2)C[C@@H]1C(=O)N1CCCN(C2CCC2)CC1 [Example 16, (2R,4S)-4-(4-Cyano-phenoxy)-2-(4-cyclobutyl-[1,4]diazepane-1-carbonyl)-pyrrolidine-1-carboxylic acid tert-butyl ester] | 3 nM | 2 nM | – | – |
| CC(C)(C)OC(=O)N1C[C@@H](Oc2cccc(F)c2)C[C@@H]1C(=O)N1CCCN(C2CCC2)CC1 [Example 17, (2R,4S)-2-(4-Cyclobutyl-[1,4]diazepane-1-carbonyl)-4-(3-fluoro-phenoxy)-pyrrolidine-1-carboxylic acid tert-butyl ester] | 3 nM | 3 nM | – | – |
| CC(C)(C)OC(=O)N1C[C@@H](Oc2ccccc2)C[C@@H]1C(=O)N1CCCN(C2CCC2)CC1 [Example 19, (2R,4S)-2-(4-Cyclobutyl-[1,4]diazepane-1-carbonyl)-4-phenoxy-pyrrolidine-1-carboxylic acid tert-butyl ester] | 5 nM | 9 nM | – | – |
| CC(C)(C)OC(=O)N1C[C@@H](Oc2cccc(Cl)c2)C[C@@H]1C(=O)N1CCCN(C2CCC2)CC1 [Example 20, (2R,4S)-4-(3-Chloro-phenoxy)-2-(4-cyclobutyl-[1,4]diazepane-1-carbonyl)-pyrrolidine-1-carboxylic acid tert-butyl ester] | 12 nM | 4 nM | – | – |
| CC(C)(C)OC(=O)N1C[C@@H](Oc2ccc(Cl)cc2)C[C@@H]1C(=O)N1CCCN(C2CCC2)CC1 [Example 21, (2R,4S)-4-(4-Chloro-phenoxy)-2-(4-cyclobutyl-[1,4]diazepane-1-carbonyl)-pyrrolidine-1-carboxylic acid tert-butyl ester] | 12 nM | 3 nM | – | – |
| Cc1cccc(O[C@H]2C[C@H](C(=O)N3CCCN(C4CCC4)CC3)N(C(=O)OC(C)(C)C)C2)c1 [Example 27, (2R,4S)-2-(4-Cyclobutyl-[1,4]diazepane-1-carbonyl)-4-m-tolyloxy-pyrrolidine-1-carboxylic acid tert-butyl ester] | – | 5 nM | 232 nM | – |
| N#Cc1ccc(O[C@@H]2CN[C@@H](C(=O)N3CCCN(C4CCC4)CC3)C2)cc1 [Example 64, (3S,5R)-4-[5-(4-Cyclobutyl-[1,4]diazepane-1-carbonyl)-pyrrolidin-3-yloxy]-benzonitrile] | – | – | – | Ki [3]: 466 nM; Kb [4, 7]: 12.9 nM |
| O=C([C@H]1C[C@H](Oc2cccc(F)c2)CN1)N1CCCN(C2CCC2)CC1 [Example 65, (2R,4S)-4-(3-Fluoro-phenoxy)-2-(4-cyclobutyl-[1,4]diazepane-1-carbonyl)-pyrrolidine] | – | – | – | Ki [3]: 12 nM; Kb [4, 7]: 7.41 nM |
| O=C([C@H]1C[C@H](Oc2ccccc2)CN1)N1CCCN(C2CCC2)CC1 [Example 67, (2R,4S)-4-Phenoxy-2-(4-cyclobutyl-[1,4]diazepane-1-carbonyl)-pyrrolidine] | – | – | 502 nM | Kb [4, 7]: 57.5 nM; Ki [2]: 5 nM; Human pA2 [5]: 8.09 |
| O=C([C@H]1C[C@H](Oc2cccc(Cl)c2)CN1)N1CCCN(C2CCC2)CC1 [Example 68, (2R,4S)-4-(3-chloro-phenoxy)-2-(4-cyclobutyl-[1,4]diazepane-1-carbonyl)-pyrrolidine] | – | – | – | Rat pA2 [4, 8]: 8.59 |
| O=C([C@H]1C[C@H](Oc2ccc(Cl)cc2)CN1)N1CCCN(C2CCC2)CC1 [Example 69, (2R,4S)-4-(4-Chloro-phenoxy)-2-(4-cyclobutyl-[1,4]diazepane-1-carbonyl)-pyrrolidine] | – | – | 18 nM | Rat pA2 [4, 8]: 8.30 |
| O=C([C@H]1C[C@H](Oc2ccc(F)cc2)CN1)N1CCCN(C2CCCC2)CC1 [Example 82, (2R,4S)-2-(4-Cyclopentyl-[1,4]diazepane-1-carbonyl)-4-(4-fluoro-phenoxy)-pyrrolidine] | – | – | 18 nM | Rat pA2 [4, 8]: 8.21 |
| N#Cc1ccc(O[C@@H]2CN[C@@H](C(=O)N3CCCN(C4CCCC4)CC3)C2)cc1 [Example 83, (2R,4S)-4-(4-Cyano-phenoxy)-2-(4-cyclopentyl-[1,4]diazepane-1-carbonyl)-pyrrolidine] | – | – | – | Ki [3]: 16 nM; Rat pA2 [4, 8]: 8.51 |
| O=C([C@@H]1C[C@@H](Oc2cccc(Cl)c2)CN1)N1CCCN(C2CCC2)CC1 [Example 88, (2S,4R)-4-(3-Chloro-phenoxy)-2-(4-cyclobutyl-[1,4]diazepane-1-carbonyl)-pyrrolidine] | – | – | 130 nM | – |
| N#Cc1ccc(O[C@H]2CN[C@H](C(=O)N3CCCN(C4CCC4)CC3)C2)cc1 [Example 94, (2S,4R)-4-(4-Cyano-phenoxy)-2-(4-cyclobutyl-[1,4]diazepane-1-carbonyl)-pyrrolidine] | – | – | – | Ki [3]: 150 nM; Kb [4, 7]: 110 nM |
| O=C([C@H]1C[C@H](Oc2ccsc2)CN1)N1CCCN(C2CCC2)CC1 [Example 102, (2R,4S)-2-(4-Cyclobutyl-[1,4]diazepane-1-carbonyl)-4-(thiophen-3-yloxy)-pyrrolidine] | – | 5 nM | – | Kb [4, 7]: 21.9 nM; Human pA2 [5]: 8.65 |

| Structure (SMILES) | Ki [1] | Ki ([2]; read-out: Human H3 Ki) | Ki [3, 6] | other results |
| --- | --- | --- | --- | --- |
| CN1C[C@@H](Oc2ccc(F)cc2)C[C@@H]1C(=O)N1CCCN(C2CCC2)CC1 [Example 110, (2R,4S)-1-Methyl-2-(4-cyclobutyl-[1,4]diazepane-1-carbonyl)-4-(4-fluoro-phenoxy)-pyrrolidine] | – | – | – | Ki [3]: 477 nM; Kb [4]: 16.6 nM |
| CC(=O)N1C[C@@H](Oc2ccc(F)cc2)C[C@H]1C(=O)N1CCN(C2CCC2)CC1 [Example 119, (2S,4S)-1-[2-(4-Cyclobutyl-piperazine-1-carbonyl)-4-(4-fluoro-phenoxy)-pyrrolidin-1-yl]-ethanone] | 300 nM | – | – | – |
| CC(=O)N1C[C@@H](Oc2ccc(F)cc2)C[C@@H]1C(=O)N1CCCN(C2CCC2)CC1 [Example 120, (2R,4S)-1-[2-(4-Cyclobutyl-[1,4]diazepane-1-carbonyl)-4-(4-fluoro-phenoxy)-pyrrolidin-1-yl]-ethanone] | – | – | 30 nM | Kb [4, 7]: 1.62 nM |
| CSc1ccc(O[C@H]2C[C@H](C(=O)N3CCCN(C4CCC4)CC3)N(C(C)=O)C2)cc1 [Example 121, (2R,4S)-1-[2-(4-Cyclobutyl-[1,4]diazepane-1-carbonyl)-4-(4-methylsulfanyl-phenoxy)-pyrrolidin-1-yl]-ethanone] | – | 2 nM | 15 nM | – |
| CC(=O)N1C[C@@H](Oc2ccc(Cl)c(C)c2)C[C@@H]1C(=O)N1CCCN(C2CCC2)CC1 [Example 122, (2R,4S)-1-[4-(4-Chloro-3-methyl-phenoxy)-2-(4-cyclobutyl-[1,4]diazepane-1-carbonyl)-pyrrolidin-1-yl]-ethanone] | – | 1 nM | 12 nM | – |
| CC(=O)N1C[C@@H](Oc2cccc(F)c2)C[C@@H]1C(=O)N1CCCN(C2CCC2)CC1 [Example 131, (2R,4S)-1-[2-(4-Cyclobutyl-[1,4]diazepane-1-carbonyl)-4-(3-fluoro-phenoxy)-pyrrolidin-1-yl]-ethanone] | – | – | – | Ki [3]: 17 nM; Rat pA2 [4, 8]: 8.22; Ki [2]: 2 nM |
| CC(=O)N1C[C@@H](Oc2ccsc2)C[C@@H]1C(=O)N1CCCN(C2CCC2)CC1 [Example 134, (2R,4S)-1-[2-(4-Cyclobutyl-[1,4]diazepane-1-carbonyl)-4-(thiophen-3-yloxy)-pyrrolidin-1-yl]-ethanone] | – | 3 nM | – | Kb [4, 7]: 8.71 nM; Human pA2 [5]: 9.28 |
| CS(=O)(=O)N1C[C@@H](Oc2ccc(F)cc2)C[C@H]1C(=O)N1CCCN(C2CCC2)CC1 [Example 137, (2S,4S)-1-Methanesulfonyl-2-(4-cyclobutyl-[1,4]diazepane-1-carbonyl)-4-(4-fluoro-phenoxy)-pyrrolidine] | 206 nM | – | – | – |
| CS(=O)(=O)N1C[C@@H](Oc2ccc(F)cc2)C[C@H]1C(=O)N1CCN(C2CCC2)CC1 [Example 138, (2S,4S)-2-(4-Cyclobutyl-piperazin-1-yl)-[4-(4-fluoro-phenoxy)-1-methanesulfonyl-pyrrolidin-2-yl]-methanone] | > 10000 nM | – | – | – |
| CC(C)(C)OC(=O)N1C[C@H](OCc2cccc(F)c2)C[C@@H]1C(=O)N1CCCN(C2CCC2)CC1 [Example 150, (2R,4R)-2-(4-Cyclobutyl-[1,4]diazepane-1-carbonyl)-4-(3-fluoro-benzyloxy)-pyrrolidine-1-carboxylic acid tert-butyl ester] | 77 nM | – | – | – |
| CC(C)(C)OC(=O)N1C[C@H](OCc2ccc(F)cc2)C[C@@H]1C(=O)N1CCCN(C2CCC2)CC1 [Example 151, (2R,4R)-2-(4-Cyclobutyl-[1,4]diazepane-1-carbonyl)-4-(4-fluoro-benzyloxy)-pyrrolidine-1-carboxylic acid tert-butyl ester] | 34 nM | – | – | – |
| O=C([C@H]1C[C@H](OCc2cccc(F)c2)CN1)N1CCCN(C2CCC2)CC1 [Example 152, (2R,4S)-2-(4-Cyclobutyl-[1,4]diazepane-1-carbonyl)-4-(3-fluoro-benzyloxy)-pyrrolidine] | – | 4 nM | 8 nM | – |
| O=C([C@H]1C[C@H](OCc2ccc(F)cc2)CN1)N1CCCN(C2CCC2)CC1 [Example 153, (2R,4S)-2-(4-Cyclobutyl-[1,4]diazepane-1-carbonyl)-4-(4-fluoro-benzyloxy)-pyrrolidine] | – | 3 nM | 13 nM | – |
| O=C([C@H]1C[C@@H](OCc2cccc(F)c2)CN1)N1CCCN(C2CCC2)CC1 [Example 154, (2R,4R)-2-(4-Cyclobutyl-[1,4]diazepane-1-carbonyl)-4-(3-fluoro-benzyloxy)-pyrrolidine] | 149 nM | – | – | – |
| O=C([C@H]1C[C@@H](OCc2ccc(F)cc2)CN1)N1CCCN(C2CCC2)CC1 [Example 155, (2R,4R)-2-(4-Cyclobutyl-[1,4]diazepane-1-carbonyl)-4-(4-fluoro-benzyloxy)-pyrrolidine] | 160 nM | – | – | – |
